One assay concerns HIV virus. In words: Anti-HIV activity in MT-4 cells, MTT (Experimental Example 2). It counts as cell-based. Conditions: Human immunodeficiency virus 1, MT4, 96 h, 50% HIV inhibition concentration, 4 days incubation. As for the experimental part:
Previously, a series of two-fold dilution on test samples were carried out in a 96-well plate (50 μL/well). Two plates were made for measuring anti-HIV activity and measuring cytotoxicity. For each agent, measurement in duplicate was carried out. An MT-4 cell suspension of 2.5×10^5/mL was dispensed at 100 μL/well onto the 96-well plate containing the test samples. An HIV virus solution was dispensed at 50 μL/well onto the 96-well plate containing the test samples and the cell. To the plate for measuring cytotoxicity, a culture solution was dispensed at 50 μL/well. It was mixed by a plate mixer, and then incubated in a CO2 incubator for 4 days. […] Thirty microliters of a MTT (3-(4,5-dimethylthiazol-2-yl)-2,5-diphenyltetrazolium bromide) solution was dispensed to each well.
A reaction was allowed to occur in a CO2 incubator for 1 hour. From each well, 150 μL of the supernatant was removed such that cells are not sucked. One-hundred and fifty microliters of a cell lysis solution was added thereto, and then it was mixed well by a plate mixer until the whole cells are lysed. The mixed 96-well plates were measured by a microplate reader at two wavelengths, 560 nm/690 nm. Based on the following calculation formula, 50% HIV inhibition concentration (EC50) was calculated. […]
Based on the following calculation formula, selectivity index was calculated. […]

A further assay addresses integrase (Human immunodeficiency virus type 1 group M subtype B, UniProt P04585). In words: Integrase inhibitory activity (Experimental Example 1). It counts as biochemical, HIV. Conditions: integrase strand transfer ELISA, absorbance OD 405 nm. Here is the method:
(1) Preparation of DNA Solution
By the same method as that described in Experimental Example 1 of Patent Document 2, a substrate DNA solution (2 pmol/μl) and a target DNA solution (5 pmol/μl) were prepared. […] Each sequence of a substrate DNA and a target DNA is as described in the same Experimental Example.
(2) Measurement of Inhibition Rate (IC50 Value)
Onto Immobilizer—Streptavidin Plates (manufactured by NUNC) was added 100 μl of a substrate DNA solution (2 pmol/μl). After adsorbing at room temperature for 60 minutes under shaking, it was washed with a phosphate buffer two times.
Then, to each well prepared as described above were added 51 μl of a reaction solution prepared from 12 μl of a buffer (composition: 150 mM MOPS (pH 7.2), 75 mM MnCl2, 50 mM 2-mercaptoethanol, 25% glycerol, 500 μg/ml bovine serum albumin-fraction V) and 39 μl of distilled water. Then, 9 μl of an integrase solution (30 pmol) was added, and the mixture was mixed well. To a well as a negative control (NC) was added 9 μl of a diluting solution (composition: 50 mM Hepes (pH 8.0), 10 mM DTT, 10% Glycerol, 0.5 M NaCl), and this was mixed well using a plate mixer.
After the plate was incubated at 30° C. for 60 minutes, the reaction solution was discarded, followed by washing with 200 μl of a washing buffer (composition: 150 mM MOPS (pH 7.2), 50 mM 2-mercaptoethanol, 25% glycerol, 500 μg/ml bovine serum albumin-fraction V) three times.
Then, to each well were added 53 μl of a reaction solution prepared from 12 μl of a buffer (composition: 150 mM MOPS (pH 7.2), 75 mM MgCl2, 50 mM 2-mercaptoethanol, 25% glycerol, 500 μg/ml bovine serum albumin-fraction V) and 41 μl of distilled water. Further, 6 μl of a solution of a test compound in DMSO was added to each well, and 6 μl of DMSO was added to wells as a positive control (PC) and a negative control (NC), followed by mixing well using a plate mixer. After the plate was incubated at 30° C. for 60 minutes, 1 μl of a target DNA (5 pmol/μl) was added, and this was mixed well using a plate mixer.
After each plate was incubated at 30° C. for 10 minutes, the reaction solution was discarded, followed by washing with a phosphate buffer two times. Then, an anti-digoxigenin antibody labeled with alkaline phosphatase (sheep Fab fragment: manufactured by Boehringer) was diluted 2000-fold with an antibody diluting solution, 100 μl of the diluent was added to bind at 30° C. for 1 hour, and this was washed successively with a phosphate buffer containing 0.05% Tween 20 two times, and a phosphate buffer two times. […] C abs.: Absorbance of well of compound NC abs.: Absorbance of NC PC abs.: Absorbance of PC
(In general: In an ELISA, binding on a coated surface is turned into a signal by an enzyme label.)

Drawing on patent publication US9200009B2, “Polycyclic pyridone derivative having integrase inhibitory activity” (Shionogi & Co., Ltd., priority 2011, dated 2015), this text covers EC50 and IC50 for four molecules.

In general, EC50 refers to the concentration that produces a half-maximal response. Higher therefore signals a need for much substance. Broadly, the IC50 is the concentration at which inhibition is half-maximal. Low readings indicate greater potency in that assay, high ones weaker potency in that assay.

Consider `C[C@@H]1CCO[C@H]2Cn3cc(-c4ncc(Cc5ccc(F)cc5F)s4)c(=O)c(O)c3C(=O)N12` [Example 2], for which, in the assay on HIV virus, the EC50 came out at 2.8 nM. The IC50 at integrase worked out at 2 nM.

On integrase, `C[C@@H]1CCO[C@H]2Cn3cc(-c4nnc(Cc5ccc(F)cc5)s4)c(=O)c(O)c3C(=O)N12` [Example 3] yielded an IC50 of 3.8 nM.

In the case of `C[C@@H]1CCO[C@H]2Cn3cc(-c4nnc(Cc5ccc(F)cc5F)s4)c(=O)c(O)c3C(=O)N12` [Example 4], in the assay on HIV virus, the response was half-maximal at 1.7 nM (EC50). This molecule also gave an IC50 on integrase of 1.3 nM.

The molecule `C[C@@H]1CCO[C@H]2Cn3cc(-c4ncc(Cc5ccc(F)cc5)s4)c(=O)c(O)c3C(=O)N12` [Example 1] showed an IC50 against integrase of 3.9 nM.
